# Data reported in article PMC7156458, “Synthetic biology based construction of biological activity-related library of fungal decalin-containing diterpenoid pyrones” (Nature Communications, 2020).
# Columns and labels:
# Experiment in all cases: cells
# Set-up in all cases: species or system JFCR39 human cancer cell lines; JFCR39 panel growth inhibition, sulforhodamine B total protein after 48 h
# DMS114 = conditions: 48 h; inhibitor; Log GI50, 48 h
# In short: (§1)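 GI50 values derive from sulforhodamine B measurement of total cellular protein after 48 hours of treatment, run in duplicate. Cells of the 39-line JFCR39 panel grew in RPMI-1640 containing 5% fetal bovine serum at 37°C under 5% CO2.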
# NCI-H460 = conditions: 48 h; inhibitor; Log GI50, 48 h
# In short: as §1
# OVCAR-5 = conditions: 48 h; inhibitor; Log GI50, 48 h
# In short: as §1
# SNB-78 = conditions: 48 h; inhibitor; Log GI50, 48 h
# In short: as §1
# MKN1 = conditions: 48 h; inhibitor; Log GI50, 48 h
# In short: as §1
# LOX-IMVI = conditions: 48 h; inhibitor; Log GI50, 48 h
# In short: as §1
# KM-12 = conditions: 48 h; inhibitor; Log GI50, 48 h
# In short: as §1
# U251 = conditions: 48 h; inhibitor; Log GI50, 48 h
# In short: as §1
# SF-268 = conditions: 48 h; inhibitor; Log GI50, 48 h
# In short: as §1
# MCF-7 = conditions: Homo sapiens, MCF7, 48 h
# In short: as §1
# DU-145 = conditions: 48 h; inhibitor; Log GI50, 48 h
# In short: as §1
# ACHN = conditions: 48 h; inhibitor; Log GI50, 48 h
# In short: as §1
# NCI-H23 = conditions: 48 h; inhibitor; Log GI50, 48 h
# In short: as §1
# PC-3 = conditions: 48 h; inhibitor; Log GI50, 48 h
# In short: as §1
# HBC-5 = conditions: 48 h; inhibitor; Log GI50, 48 h
# In short: as §1
# MDA-MB-231 = conditions: 48 h; inhibitor; Log GI50, 48 h
# In short: as §1
# HCT-116 = conditions: 48 h; inhibitor; Log GI50, 48 h
# In short: as §1
# SNB-75 = conditions: 48 h; inhibitor; Log GI50, 48 h
# In short: as §1
# NCI-H522 = conditions: 48 h; inhibitor; Log GI50, 48 h
# In short: as §1
# OVCAR-3 = conditions: 48 h; inhibitor; Log GI50, 48 h
# In short: as §1
# HBC-4 = conditions: 48 h; inhibitor; Log GI50, 48 h
# In short: as §1
smiles,measurement,setting,value
C=C1CCC2C(C)(CCC=C(C)C)C(O)CCC2(C)C1Cc1c(OC)oc(CO)c(C)c1=O (stereo not drawn) [Compound 16],Log GI50,DMS114,-6.139 M
same,Log GI50,NCI-H460,-6.167 M
same,Log GI50,OVCAR-5,-4.859 M
same,Log GI50,SNB-78,-4.939 M
same,Log GI50,MKN1,-4.787 M
same,Log GI50,LOX-IMVI,-5.224 M
same,Log GI50,KM-12,-4.862 M
same,Log GI50,U251,-4.880 M
same,Log GI50,SF-268,-4.944 M
same,GI50,MCF-7,4.46 µM
same,Log GI50,DU-145,-4.962 M
same,Log GI50,ACHN,-5.541 M
same,Log GI50,NCI-H23,-5.618 M
same,Log GI50,PC-3,-5.211 M
same,Log GI50,HBC-5,-4.986 M
same,Log GI50,MDA-MB-231,-4.882 M
same,Log GI50,HCT-116,-5.292 M
same,Log GI50,SNB-75,-4.827 M
same,Log GI50,NCI-H522,-5.659 M
same,Log GI50,OVCAR-3,-5.447 M
same,Log GI50,HBC-4,-4.804 M
